Laboratory results from article PMC6566410, “Novel Diamide-Based Benzenesulfonamides as Selective Carbonic Anhydrase IX Inhibitors Endowed with Antitumor Activity: Synthesis, Biological Evaluation and In Silico Insights” (International Journal of Molecular Sciences, 2019).

Columns and labels:
[1] = system: OVCAR-3; assay: NCI one-dose SRB assay; format: cell-based; conditions: Homo sapiens, OVCAR-3 (Ovarian Cancer), 1.00E-5 Molar, read-out: Growth Percent
Method in brief: (§1)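 NCI-60 one-dose protocol: compound at 10^−5 M; growth and viability quantified with SRB dye.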

[2] = system: COLO 205; assay: NCI one-dose SRB assay; format: cell-based; conditions: Homo sapiens, COLO 205 (Colon Cancer), 1.00E-5 Molar, read-out: Growth Percent
Method in brief: as §1

[3] = system: U251; assay: NCI one-dose SRB assay; format: cell-based; conditions: Homo sapiens, U-251, U251 (CNS Cancer), 1.00E-5 Molar, read-out: Growth Percent
Method in brief: as §1

[4] = system: SK-OV-3; assay: NCI one-dose SRB assay; format: cell-based; conditions: Homo sapiens, SK-OV-3 (Ovarian Cancer), 1.00E-5 Molar, read-out: Growth Percent
Method in brief: as §1

[5] = system: TK-10; assay: NCI one-dose SRB assay; format: cell-based; conditions: Homo sapiens, TK-10 (Renal Cancer), 1.00E-5 Molar, read-out: Growth Percent
Method in brief: as §1

[6] = system: CAKI-1; assay: NCI one-dose SRB assay; format: cell-based; conditions: Homo sapiens, CAKI-1 (Renal Cancer), 1.00E-5 Molar, read-out: Growth Percent
Method in brief: as §1

[7] = system: HCT-15; assay: NCI one-dose SRB assay; format: cell-based; conditions: Homo sapiens, HCT-15 (Colon Cancer), 1.00E-5 Molar, read-out: Growth Percent
Method in brief: as §1

[8] = system: UACC-257; assay: NCI one-dose SRB assay; format: cell-based; conditions: Homo sapiens, UACC-257 (Melanoma), 1.00E-5 Molar, read-out: Growth Percent
Method in brief: as §1

[9] = system: IGROV1; assay: NCI one-dose SRB assay; format: cell-based; conditions: Homo sapiens, IGROV-1, IGROV1 (Ovarian Cancer), 1.00E-5 Molar, read-out: Growth Percent
Method in brief: as §1

[10] = system: PC-3; assay: NCI one-dose SRB assay; format: cell-based; conditions: Homo sapiens, PC-3 (Prostate Cancer), 1.00E-5 Molar, read-out: Growth Percent
Method in brief: as §1

[11] = system: OVCAR-8; assay: NCI one-dose SRB assay; format: cell-based; conditions: Homo sapiens, OVCAR-8 (Ovarian Cancer), 1.00E-5 Molar, read-out: Growth Percent
Method in brief: as §1

[12] = system: HOP-92; assay: NCI one-dose SRB assay; format: cell-based; conditions: Homo sapiens, HOP-92 (Non-Small Cell Lung Cancer), 1.00E-5 Molar, read-out: Growth Percent
Method in brief: as §1

[13] = system: UACC-62; assay: NCI one-dose SRB assay; format: cell-based; conditions: Homo sapiens, UACC-62 (Melanoma), 1.00E-5 Molar, read-out: Growth Percent
Method in brief: as §1

[14] = system: KM12; assay: NCI one-dose SRB assay; format: cell-based; conditions: Homo sapiens, KM12 (Colon Cancer), 1.00E-5 Molar, read-out: Growth Percent
Method in brief: as §1

[15] = system: RPMI-8226; assay: NCI one-dose SRB assay; format: cell-based; conditions: Homo sapiens, RPMI-8226 (Leukemia), 1.00E-5 Molar, read-out: Growth Percent
Method in brief: as §1

[16] = system: HT29; assay: NCI one-dose SRB assay; format: cell-based; conditions: Homo sapiens, HT-29, HT29 (Colon Cancer), 1.00E-5 Molar, read-out: Growth Percent
Method in brief: as §1

[17] = system: MALME-3M; assay: NCI one-dose SRB assay; format: cell-based; conditions: Homo sapiens, MALME-3M (Melanoma), 1.00E-5 Molar, read-out: Growth Percent
Method in brief: as §1

[18] = system: ACHN; assay: NCI one-dose SRB assay; format: cell-based; conditions: Homo sapiens, ACHN (Renal Cancer), 1.00E-5 Molar, read-out: Growth Percent
Method in brief: as §1

[19] = system: NCI-H226; assay: NCI one-dose SRB assay; format: cell-based; conditions: Homo sapiens, NCI-H226 (Non-Small Cell Lung Cancer), 1.00E-5 Molar, read-out: Growth Percent
Method in brief: as §1

[20] = system: MCF7; assay: NCI one-dose SRB assay; format: cell-based; conditions: Homo sapiens, MCF7 (Breast Cancer), 1.00E-5 Molar, read-out: Growth Percent
Method in brief: as §1

[21] = system: NCI-H460; assay: NCI one-dose SRB assay; format: cell-based; conditions: Homo sapiens, NCI-H460 (Non-Small Cell Lung Cancer), 1.00E-5 Molar, read-out: Growth Percent
Method in brief: as §1

[22] = system: MDA-MB-468; assay: NCI one-dose SRB assay; format: cell-based; conditions: Homo sapiens, MDA-MB-468 (Breast Cancer), 1.00E-5 Molar, read-out: Growth Percent
Method in brief: as §1

[23] = system: HS 578T; assay: NCI one-dose SRB assay; format: cell-based; conditions: Homo sapiens, HS 578T (Breast Cancer), 1.00E-5 Molar, read-out: Growth Percent
Method in brief: as §1

[24] = system: SNB-75; assay: NCI one-dose SRB assay; format: cell-based; conditions: Homo sapiens, SNB-75 (CNS Cancer), 1.00E-5 Molar, read-out: Growth Percent
Method in brief: as §1

[25] = system: HL-60(TB); assay: NCI one-dose SRB assay; format: cell-based; conditions: Homo sapiens, HL-60(TB) (Leukemia), 1.00E-5 Molar, read-out: Growth Percent
Method in brief: as §1

[26] = system: MOLT-4; assay: NCI one-dose SRB assay; format: cell-based; conditions: Homo sapiens, MOLT-4 (Leukemia), 1.00E-5 Molar, read-out: Growth Percent
Method in brief: as §1

[27] = system: panel of sixty cancer cell lines; assay: NCI one-dose SRB assay, whole panel; format: cell-based; conditions: Homo sapiens, mean over the panel, 1.00E-5 Molar, read-out: Mean Growth Percent
Method: (§2) First, all diamide-based benzenesulfonamides herein reported 5a–h were screened for their antitumor activity at one dose (10^−5 M) assay against a panel of sixty cancer cell lines through the National Cancer Institute (NCI) Developmental Therapeutic Program (www.dtp.nci.nih.gov), according to US-NCI protocol. The cell growth and cell viability were evaluated using the sulforhodamine B (SRB) colorimetric assay.
(§3) This assay was carried out according to the protocol of the Drug Evaluation Branch, NCI, Bethesda. The cell growth and cell viability were evaluated using the sulforhodamine B (SRB) colorimetric assay, as reported earlier.

[28] = target: hCA I (Homo sapiens, UniProt P00915); assay: stopped-flow CO2 hydrase assay
Chain of hCA I (P00915 whole entry): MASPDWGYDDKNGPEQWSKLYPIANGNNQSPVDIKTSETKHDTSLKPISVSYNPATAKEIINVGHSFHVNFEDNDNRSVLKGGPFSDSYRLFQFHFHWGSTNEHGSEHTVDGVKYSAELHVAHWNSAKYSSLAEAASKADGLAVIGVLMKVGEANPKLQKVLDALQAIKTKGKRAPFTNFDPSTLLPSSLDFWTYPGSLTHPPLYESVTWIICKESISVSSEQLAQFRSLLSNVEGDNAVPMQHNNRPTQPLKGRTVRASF
Text: (§4) An Applied Photophysics stopped-flow instrument was used for assaying the CA catalysed CO2 hydration activity, as reported earlier [17]. The inhibition constants were obtained by non-linear least-squares methods using PRISM 3 and the Cheng-Prusoff equation as reported earlier, and represent the mean from at least three different determinations. The four tested CA isofoms were recombinant ones obtained in-house as reported earlier [26, 27, 28, 29].

[29] = system: SR; assay: NCI one-dose SRB assay; format: cell-based, human; conditions: SR (Leukemia), 1.00E-5 Molar
Method: as §2, §3

[30] = target: hCA II (Homo sapiens, UniProt P00918); assay: stopped-flow CO2 hydrase assay
Text: as §4

Row | Structure (SMILES) | activity at 10 µM [1] | activity at 10 µM [2] | activity at 10 µM [3] | activity at 10 µM [4] | activity at 10 µM [5] | activity at 10 µM [6] | activity at 10 µM [7] | activity at 10 µM [8] | activity at 10 µM [9] | activity at 10 µM [10] | activity at 10 µM [11] | activity at 10 µM [12] | activity at 10 µM [13] | activity at 10 µM [14] | activity at 10 µM [15] | activity at 10 µM [16] | activity at 10 µM [17] | activity at 10 µM [18] | activity at 10 µM [19] | activity at 10 µM [20] | also measured
1 | NS(=O)(=O)c1ccc(NC(=O)C(=Cc2ccc(Cl)cc2)NC(=O)c2ccccc2)cc1 [Compound 5a, N-(1-(4-Chlorophenyl)-3-oxo-3-((4-sulfamoylphenyl)amino)prop-1-en-2-yl)benzamide] | 104% | 104% | 95.3% | 97% | 96.6% | 92.5% | 106% | 103% | 90.9% | 105% | 97.6% | 98.8% | 96.2% | 108% | 109% | 106% | 96.3% | 100% | 92.9% | 98.3% | activity at 10 µM [21]: 106%; activity at 10 µM [22]: 101%; activity at 10 µM [23]: 101%; activity at 10 µM [24]: 86.3%; activity at 10 µM [25]: 101%; activity at 10 µM [26]: 103%; melting point: 255 to 258 °C; activity at 10 µM [27]: 100%; Ki [28]: 3960 nM; Growth Percent [29]: 96.44%; Ki [30]: 68.3 nM
2 | COc1ccc(C=C(NC(=O)c2ccccc2)C(=O)Nc2ccc(S(N)(=O)=O)cc2)c(OC)c1 [Compound 5f, N-(1-(2,4-Dimethoxyphenyl)-3-oxo-3-((4-sulfamoylphenyl)amino)prop-1-en-2-yl)benzamide] | 113% | 118% | 100% | 101% | 112% | 92.3% | 99.1% | 99.6% | 91.9% | 96.3% | 100% | 114% | 97.2% | 109% | 109% | 106% | 104% | 103% | 98.4% | 87.6% | activity at 10 µM [21]: 109%; activity at 10 µM [22]: 74.8%; activity at 10 µM [23]: 106%; activity at 10 µM [24]: 92.9%; activity at 10 µM [25]: 103%; activity at 10 µM [26]: 114%; melting point: 245 to 250 °C; activity at 10 µM [27]: 103%; Ki [28]: 5130 nM; Growth Percent [29]: 95.41%; Ki [30]: 294 nM
